In patent publication US20260334439A1, “BCAT2 INHIBITORS” (Agios Pharmaceuticals, Inc., priority 2023, published 2026):

Biological target: T1, BCAT2 (Homo sapiens, UniProt O15382)
T1 sequence (O15382 28-392): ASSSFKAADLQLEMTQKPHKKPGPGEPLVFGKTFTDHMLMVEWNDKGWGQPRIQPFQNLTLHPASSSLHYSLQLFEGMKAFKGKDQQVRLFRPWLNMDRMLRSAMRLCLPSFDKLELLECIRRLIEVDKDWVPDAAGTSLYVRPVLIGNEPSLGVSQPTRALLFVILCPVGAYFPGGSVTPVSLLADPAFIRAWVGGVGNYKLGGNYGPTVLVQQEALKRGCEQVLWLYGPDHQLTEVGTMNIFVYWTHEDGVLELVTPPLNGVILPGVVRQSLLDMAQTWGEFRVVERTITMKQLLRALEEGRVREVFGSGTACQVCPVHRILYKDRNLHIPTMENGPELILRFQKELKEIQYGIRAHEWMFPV
Test: BCAT2 in vitro enzyme inhibition assay (hBCAT2, glutamate dehydrogenase/diaphorase/resazurin coupled fluorescence read)
Type: biochemical
Details: hBCAT2, 1 h preincubation at 25° C., one hour reaction; average where tested multiple times
Method in brief: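 hBCAT2 (0.33 μg/mL in mix) preincubated 1 h at 25 °C with compound (top 100 μM, 3-fold, 10 points) in Tris pH 8.0/NaCl/BSA; substrate mix added (L-leucine, α-ketoglutarate, GDH, NAD, diaphorase, resazurin), quenched with SDS after 1 h, fluorescence Ex 540/Em 590; duplicates, repeat tests averaged.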

| Compound | IC50 [nM] |
| --- | --- |
| O=C1c2cc(Cl)ccc2OCCN1[C@H]1CCC[C@@H](n2c(-c3ccccc3F)nc3cnc(-c4nc[nH]n4)cc32)C1 [Example 216, 7-chloro-4-((1S,3R)-3-(2-(2-fluorophenyl)-6-(1H-1,2,4-triazol-3-yl)-1H-imidazo[4,5-c]pyridin-1-yl)cyclohexyl)-3,4-dihydrobenzo[f][1,4]oxazepin-5(2H)-one] | > 1000 |
| CO[C@@H]1C[C@@H](NC(=O)c2cc(F)ccn2)C[C@@H](n2c(-c3ccccc3F)nc3ccc(-c4nc[nH]n4)cc32)C1 [Example 220, 4-fluoro-N-((1R,3S,5S)-3-(2-(2-fluorophenyl)-6-(1H-1,2,4-triazol-3-yl)-1H-benzo[d]imid-azol-1-yl)-5-methoxycyclohex-yl)picolinamide] | > 1000 |
| O=C(N[C@H]1CCC[C@@H](n2c(-c3ncccc3F)nc3ccc(-c4nc[nH]n4)cc32)[C@@H]1O)c1cc(F)ccc1F [Example 222, 2,5-difluoro-N-((1S,2R,3R)-3-(2-(3-fluoropyridin-2-yl)-6-(1H-1,2,4-triazol-3-yl)-1H-benzo[d]imidazol-1-yl)-2-hydroxycyclo-hexyl)benzamide] | 100 to 500 |
| CO[C@H]1C[C@H](NC(=O)c2cc(F)ccn2)C[C@H](n2c(-c3ccccc3OCCO)nc3ccc(-c4ncco4)cc32)C1 [Example 223, 4-fluoro-N-((1R,3S,5S)-3-(2-(2-(2-hydroxyethoxy)phenyl)-6-(oxazol-2-yl)-1H-benzo[d]imid-azol-1-yl)-5-methoxycyclohex-yl)picolinamide] | 100 to 500 |
| O=C(N[C@H]1C[C@@H](n2c(-c3ccccc3OCCO)nc3ccc(-c4nc[nH]n4)cc32)CC(F)(F)C1)c1cc(F)ccn1 [Example 232, N-((1S,5R)-3,3-difluoro-5-(2-(2-(2-hydroxyethoxy)phenyl)-6-(1H-1,2,4-triazol-3-yl)-1H-benzo[d]imidazol-1-yl)cyclohexyl)-4-fluoropicolinamide] | 100 to 500 |
| CN1C[C@@H](NC(=O)c2cc(Cl)ccn2)C[C@@H](n2c(-c3ccccc3OCCO)nc3ccc(-c4ncccn4)cc32)C1 [Example 235, 4-chloro-N-((3S,5R)-5-(2-(2-(2-hydroxyethoxy)phenyl)-6-(pyr-imidin-2-yl)-1H-benzo[d]imid-azol-1-yl)-1-methylpiperidin-3-yl)picolinamide] | > 1000 |
| CN1C[C@H](NC(=O)c2cc(F)ccn2)C[C@H](n2c(-c3ccccc3OCCO)nc3ccc(-c4ncccn4)cc32)C1 [Example 236, 4-fluoro-N-((3R,5S)-5-(2-(2-(2-hydroxyethoxy)phenyl)-6-(pyr-imidin-2-yl)-1H-benzo[d]imid-azol-1-yl)-1-methylpiperidin-3-yl)picolinamide] | 100 to 500 |
| CN1C[C@@H](NC(=O)c2cc(F)ccn2)C[C@@H](n2c(-c3ccccc3OCCO)nc3ccc(-c4ncccn4)cc32)C1 [Example 237, 4-fluoro-N-((3S,5R)-5-(2-(2-(2-hydroxyethoxy)phenyl)-6-(pyr-imidin-2-yl)-1H-benzo[d]imid-azol-1-yl)-1-methylpiperidin-3-yl)picolinamide] | > 1000 |
| CN1C[C@@H](N2Cc3ccc(F)cc3C2=O)C[C@@H](n2c(-c3ccccc3OCCO)nc3ccc(-c4ncccn4)cc32)C1 [Example 244, 6-fluoro-2-((3S,5R)-5-(2-(2-(2-hydroxyethoxy)phenyl)-6-(pyr-imidin-2-yl)-1H-benzo[d]imid-azol-1-yl)-1-methylpiperidin-3-yl)isoindolin-1-one] | 500 to 1000 |
| O=C(N[C@H]1CCC[C@@H](n2c(-c3ncccc3F)nc3cnc(-c4nc[nH]n4)cc32)C1)c1cc(Cl)ccc1OC(F)F [compound 47] | < 100 |
| O=C(N[C@H]1CCC[C@@H](n2c(-c3ccccc3F)nc3cnc(-c4nc[nH]n4)cc32)C1)c1cc(Cl)ccc1OC(F)F [compound 50] | < 100 |
| O=C(N[C@H]1CCC[C@@H](n2c(-c3ccccc3OC(F)F)nc3cnc(-c4nc[nH]n4)cc32)C1)c1cc(Cl)ccc1OC(F)F [compound 51] | < 100 |
| O=C(N[C@H]1CCC[C@@H](n2c(-c3ccccc3OC(F)F)nc3cnc(-c4nc[nH]n4)cc32)C1)c1cc(Cl)ccn1 [compound 52] | < 100 |
| O=C(N[C@H]1CCC[C@@H](n2c(-c3ncccc3OC(F)F)nc3cnc(-c4nc[nH]n4)cc32)C1)c1cc(F)ccc1F [compound 61] | < 100 |
| O=C(N[C@H]1CCC[C@@H](n2c(-c3ncccc3OC(F)F)nc3cnc(-c4nc[nH]n4)cc32)C1)c1cc(Cl)ccn1 [compound 62] | < 100 |
| O=C(N[C@H]1CCC[C@@H](n2c(-c3ncccc3OC(F)F)nc3cnc(-c4nc[nH]n4)cc32)C1)c1cc(F)ccn1 [compound 63] | < 100 |
| COc1ccnc(C(=O)N[C@H]2CCC[C@@H](n3c(-c4ncccc4OC(F)F)nc4cnc(-c5nc[nH]n5)cc43)C2)c1 [compound 64] | < 100 |
| CC(C)Oc1ccc(Cl)cc1C(=O)N[C@H]1CCC[C@@H](n2c(-c3ncccc3OC(F)F)nc3cnc(-c4nc[nH]n4)cc32)C1 [compound 65] | < 100 |
| O=C(N[C@H]1CCC[C@@H](n2c(-c3ncccc3OC(F)F)nc3cnc(-c4nc[nH]n4)cc32)C1)c1cc(Cl)ccc1OC(F)F [compound 66] | < 100 |
| O=C(N[C@H]1CCC[C@@H](n2c(-c3ncccc3OC(F)F)nc3cnc(-c4ncn[nH]4)cc32)C1)c1cc(O)ccc1Cl [compound 97] | < 100 |
| CN1C[C@@H](NC(=O)c2cc(F)ccn2)C[C@@H](n2c(-c3ccccc3OC(F)F)nc3cnc(-c4nc[nH]n4)cc32)C1 [compound 140] | 500 to 1000 |
| CN1C[C@@H](NC(=O)c2cc(Cl)ccn2)C[C@@H](n2c(-c3ccccc3OC(F)F)nc3cnc(-c4nc[nH]n4)cc32)C1 [compound 142] | 100 to 500 |

The next lines start with the values.

| IC50 [nM] | Compound |
| --- | --- |
| < 100 | N#Cc1ccccc1-c1nc2cnc(-c3nc[nH]n3)cc2n1[C@@H]1CCC[C@H](N2COc3ccc(Cl)cc3C2=O)C1 [Example 203, 2-(1-((1R,3S)-3-(6-chloro-4-oxo-2H-benzo[e][1,3]oxazin-3(4H)-yl)cyclohexyl)-6-(1H-1,2,4-triazol-3-yl)-1H-imidazo[4,5-c]pyridin-2-yl)benzonitrile] |
| < 100 | NC(=O)c1ccccc1-c1nc2cnc(-c3nc[nH]n3)cc2n1[C@@H]1CCC[C@H](N2COc3ccc(Cl)cc3C2=O)C1 [Example 207, 2-(1-((1R,3S)-3-(6-chloro-4-oxo-2H-benzo[e][1,3]oxazin-3(4H)-yl)cyclohexyl)-6-(1H-1,2,4-triazol-3-yl)-1H-imidazo[4,5-c]pyridin-2-yl)benzamide] |
| < 100 | N#Cc1ccccc1-c1nc2cnc(-c3nc[nH]n3)cc2n1[C@@H]1CCC[C@H](N2COc3ccc(F)cc3C2=O)C1 [Example 210, 2-(1-((1R,3S)-3-(6-fluoro-4-oxo-2H-benzo[e][1,3]oxazin-3(4H)-yl)cyclohexyl)-6-(1H-1,2,4-triazol-3-yl)-1H-imidazo[4,5-c]pyridin-2-yl)benzonitrile] |
| < 100 | CO[C@H]1C[C@H](NC(=O)c2cc(F)ccn2)C[C@H](n2c(-c3ccccc3OCCO)nc3ccc(-c4ncccn4)cc32)C1 [Example 224, 4-fluoro-N-((1R,3S,5S)-3-(2-(2-(2-hydroxyethoxy)phenyl)-6-(pyrimidin-2-yl)-1H-benzo[d]imidazol-1-yl)-5-methoxycyclo-hexyl)picolinamide] |
| < 100 | O=C(N[C@H]1CCC[C@@H](n2c(-c3ccccc3F)nc3ccc(-c4nc[nH]n4)cc32)[C@@H]1O)c1cc(F)ccc1F [Example 225, 2,5-difluoro-N-((1S,2R,3R)-3-(2-(2-fluorophenyl)-6-(1H-1,2,4-triazol-3-yl)-1H-benzo[d]imid-azol-1-yl)-2-hydroxycyclohex-yl)benzamide] |
| < 100 | O=C(N[C@H]1CCC[C@@H](n2c(-c3ccccc3OCCO)nc3ccc(-c4nc[nH]n4)cc32)C1)c1cc(F)ccc1F [Example 228, 2,5-difluoro-N-((1S,3R)-3-(2-(2-(2-hydroxyethoxy)phenyl)-6-(1H-1,2,4-triazol-3-yl)-1H-benzo[d]imidazol-1-yl)cyclo-hexyl)benzamide] |
| < 100 | O=C(N[C@H]1CCC[C@@H](n2c(-c3ccccc3OCCO)nc3ccc(-c4nc[nH]n4)cc32)C1)c1cc(Cl)ccc1F [Example 229, 5-chloro-2-fluoro-N-((1S,3R)-3-(2-(2-(2-hydroxyethoxy)phenyl)-6-(1H-1,2,4-triazol-3-yl)-1H-benzo[d]imidazol-1-yl)cyclohex-yl)benzamide] |
| < 100 | O=C(N[C@@H]1C[C@H](n2c(-c3ccccc3OCCO)nc3ccc(-c4nc[nH]n4)cc32)CC(F)(F)C1)c1cc(F)ccn1 [Example 231, N-((1R,5S)-3,3-difluoro-5-(2-(2-(2-hydroxyethoxy)phenyl)-6-(1H-1,2,4-triazol-3-yl)-1H-benzo[d]imidazol-1-yl)cyclohexyl)-4-fluoropicolinamide] |
| < 100 | CN1C[C@H](NC(=O)c2cc(Cl)ccn2)C[C@H](n2c(-c3ccccc3OCCO)nc3ccc(-c4ncccn4)cc32)C1 [Example 234, 4-chloro-N-((3R,5S)-5-(2-(2-(2-hydroxyethoxy)phenyl)-6-(pyr-imidin-2-yl)-1H-benzo[d]imid-azol-1-yl)-1-methylpiperidin-3-yl)picolinamide] |
| < 100 | N[C@H]1[C@H](n2c(-c3ccccc3F)nc3ccc(-c4nc[nH]n4)cc32)CCC[C@@H]1N1Cc2ccc(Cl)cc2C1=O [Example 242, 2-((1S,2S,3R)-2-amino-3-(2-(2-fluorophenyl)-6-(1H-1,2,4-triazol-3-yl)-1H-benzo[d]imidazol-1-yl)cyclohexyl)-6-chloroisoindolin-1-one] |
